Like-named read-outs stand apart in the source and are kept apart here.
Legend:
[1] = T1-values for the 13C atom (water solution and solid); format: physicochemical; conditions: 7 T
Text: (§1) T1-values for the ^13C atom in 1-^13C-2,2,2′,2′,2″,2″-hexadeuterotris(hydroxymethyl)nitromethane
(§2) T1-values for the ^13C atom in 2-^13C-2,2-bis(trideuteromethyl)-1,1,3,3-tetradeuteropropane-1,3-diol

[2] = T1-values for the 13C atom in human bloodplasma; format: physicochemical; conditions: 37° C., 7 T
Text: as §1, §2

[3] = 13C-signal enhancement after low-field pumping and dissolution (solution experiments); format: physicochemical; conditions: 20 mg solid in 3 ml deuterium oxide, 40° C., holding field 0.4 T
Procedure: A sample of solid 1-^13C-2,2,2′,2′,2″,2″-hexadeuterotris(hydroxymethyl)nitromethane was subjected to a magnetic field of 6.56 T at a temperature of 2.5 K for 10 minutes. The sample was then removed from the centre of the magnet to the stray field (7 mT) for a duration 1 s and then returned to the magnet. After another 10 minutes the process was repeated one more.
(§3) A sample of solid 1-^13C-2,2,2′,2′,2″,2″-hexadeuterotris(hydroxymethyl)nitromethane (20 mg) was subjected to the above-mentioned pumping procedure (see Examples 5-7) and then in less than 1 second moved to a holding field of 0.4 T where also a sample of deuterium oxide (3 ml) at a temperature of 40° C., stirred by nitrogen bubbling, was kept. […] The sample was inserted into the spectrometer and a ^13C-spectrum was recorded. […]
as §3, with “2-^13C-2,2-bis(trideuteromethyl)-1,1,3,3-tetradeuteropropane-1,3-diol” for “1-^13C-2,2,2′,2′,2″,2″-hexadeuterotris(hydroxymethyl)nitromethane”

[4] = T1 in the blood after injection of the dissolved polarised agent; format: in vivo; conditions: 300 mg dissolved in 10 ml Ringers Solution, 37° C., pH 7.4, injected
Procedure: 300 mg of sterile Na2^13CO3 or NaH^13CO3 is placed inside a 10 ml plastic injection syringe. The gas inside the syringe is enriched with >20% […]. The syringe is placed inside a magnet (1-20 T) at a temperature of about 4 K (0.001-5 K) until thermodynamic equilibrium is reached.
The syringe is removed and transported to the subject located in the MRI magnet. 10 ml of sterile Ringers Solution (at 37° C., pH 7.4) is aspirated and injected at a rate of 10 ml/sec immediately after the high T1 agent has dissolved. 13C MRI is performed using a fast pulse sequence. T1 in the blood is about 20 s and the distribution of the agent is followed on the MR imager.

[5] = solid
Text: Where Mmax is the magnetisation of the sample after complete relaxation at the final field.
This procedure can be repeated after the protons have repolarised again, successively building up the carbon polarisation until the spin-temperature of the two nuclei become the same. […] Generally fluorine relaxes even faster than protons and it would be possible to include a fluorine atom in the contrast agent molecule as an internal relaxation agent.
It is also possible to use quadrupolar nuclei for this process. […] The magnetic storage field must be large enough to avoid overlap of the resonances of the wanted nucleus and any rapidly relaxing quadrupolar nuclei. It is known that this phenomenon causes the rapid relaxation of frozen ^129Xe in a low field, when spin diffusion to the quadrupolar ^131Xe becomes efficient.

| Compound | T1 in the blood [4] | T1-value for the 13C atom ([1]; H2O, air saturated, 37° C.) | T1-value for the 13C atom ([1]; H2O, degassed, 37° C.) | T1-value for the 13C atom ([1]; Solid, 2.5 K) | T1-value for the 13C atom ([1]; Solid, 20° C.) | T1-value for the 13C atom [2] | Time until a clear solution was obtained [3] | other results |
| --- | --- | --- | --- | --- | --- | --- | --- | --- |
| [2H]C([2H])(O)[13C]([N+](=O)[O-])(C([2H])([2H])O)C([2H])([2H])O [1-^13C-2,2,2′,2′,2″,2″-hexadeuterotris(hydroxymethyl)nitromethane] |  | 95 s | 102 s | 198000 s | 1320 s | 60 s | less than 1 S | T1-value for the 13C atom ([1]; Solid, −30° C.): 2820 s |
| [2H]C([2H])([2H])[13C](C([2H])([2H])[2H])(C([2H])([2H])O)C([2H])([2H])O [2-^13C-2,2-bis(trideuteromethyl)-1,1,3,3-tetradeuteropropane-1,3-diol] |  | 133 s | 157 s | 162000 s | 237 s | 96 s | less than 1 S |  |
| CC(=O)[O-].[Na+] [sodium acetate] |  |  |  |  |  |  |  | T1,0 (time constant for relaxation at no external magnetic field) ([5]; carbonyl carbon): about 5 seconds; T1 of the carbonyl carbon ([5]; at 7 T): 1700 s; T1 of the carbonyl carbon ([5]; room temperature): 1700 s; T1 of the protons ([5]; room temperature): 31 s; T1 of the sodium ions ([5]; room temperature): 1.7 s |

Second part, led by results:

| T1 in the blood [4] | Compound | T1-value for the 13C atom ([1]; H2O, air saturated, 37° C.) | T1-value for the 13C atom ([1]; H2O, degassed, 37° C.) | T1-value for the 13C atom ([1]; Solid, 2.5 K) | T1-value for the 13C atom ([1]; Solid, 20° C.) | T1-value for the 13C atom [2] | Time until a clear solution was obtained [3] | other results |
| --- | --- | --- | --- | --- | --- | --- | --- | --- |
| about 20 s | O=[13C]([O-])[O-].[Na+].[Na+] [Na2^13CO3] |  |  |  |  |  |  |  |
| about 20 s | O=[13C]([O-])O.[Na+] [NaH^13CO3, sodium bicarbonate—^13C] |  |  |  |  |  |  |  |
